Laboratory results published in ChEMBL document CHEMBL2407075, “Sulphonamido-quinoxalines: search for anticancer agent” (Eur J Med Chem, 2013).

Test: Oral bioavailability in human
Type: ADME, organism-based
Conditions: in silico prediction

Row | SMILES | bioavailability [%]
1 | CC(=O)NS(=O)(=O)c1ccc2nc(-c3ccccc3)c(-c3ccccc3)nc2c1 | 94.7
2 | O=[N+]([O-])c1ccc(NS(=O)(=O)c2ccc3nc(-c4ccccc4)c(-c4ccccc4)nc3c2)cc1 | 87.6
3 | O=[N+]([O-])c1cccc(NS(=O)(=O)c2ccc3nc(-c4ccccc4)c(-c4ccccc4)nc3c2)c1 | 85.6
4 | O=C(O)c1ccccc1NS(=O)(=O)c1ccc2nc(-c3ccccc3)c(-c3ccccc3)nc2c1 | 83.6
5 | Cc1ccnc(NS(=O)(=O)c2ccc3nc(-c4ccccc4)c(-c4ccccc4)nc3c2)c1 | 100

More lines, now with the values ahead:

Row | bioavailability [%] | SMILES
6 | 100 | O=S(=O)(Nc1ccc2ccccc2c1)c1ccc2nc(-c3ccccc3)c(-c3ccccc3)nc2c1
7 | 93.9 | O=S(=O)(Nc1ccc(O)cc1)c1ccc2nc(-c3ccccc3)c(-c3ccccc3)nc2c1
8 | 96.9 | CC(=O)c1cccc(NS(=O)(=O)c2ccc3nc(-c4ccccc4)c(-c4ccccc4)nc3c2)c1
